Read-outs that look alike come from different tables or passages of the source. Some results are limits rather than exact numbers.

The subject of data set [1] is KM mice. The settings on record: both, mouse, in vivo.
Description: (§4) KM mice (half male and half female) were randomly divided into several groups (with 2-5 mice in each group), which were respectively the 2000 mg/kg groups for each compound, and the solvent group. 0.2 ml/10 g were administered intragastrically. The death of the animals in 3 days were observed. (In the case 3 or more animals survived in 3 days without notable abnormity in their life states, the observation was continued until the assay was completed in 7 days. In the case 3 or more animals died in 3 days, the median lethal dose method was used to determine the LD50).
(§5) 0.2 ml/10 g were administered intragastrically, and the death of the animals in 1-3 days were observed.
For data set [2], the system named is KM mice. Description: Apomorphine induced clambering assay of mice. Type of data set: in vivo. The settings on record: for ED50: Mus musculus, po, apomorphine 1 mg/kg sc. On the procedure:
Healthy KM mice (male, with body weight of 18-22 g) were provided by Qinglongshan Animal Cultivation Center, Nanjing.
Test positive drugs: haloperidol, clozapine, risperidone, olanzapine, aripiprazole, ziprasidone, quetiapine.
Apomorphine provided by Sigma Company was dissolved in 0.9% NaCl (containing 0.1% vitamin C) before use, and was freshly formulated before use.
Corresponding solvent double-distilled water was administered intragastrically to the negative control group and the model group, corresponding positive drugs were administered intragastrically to the positive drug groups (a small amount of acetic acid was first added and then double-distilled water was added when dissolving), and corresponding dosages of compounds were administered intragastrically to the compound groups for each dosage, with the volume for intragastric administration as 0.1 ml/10 g. 1 hour after the intragastric administration, apomorphine was subcutaneously injected (1 mg/kg), with the volume as 0.1 ml/10 g. After the injection of apomorphine, the mice were immediately put into the clambering cages. After 5 min of adaptation, the behaviors of the mice at 10-11, 20-21, and 30-31 min after the injection of apomorphine were observed and scored. Scoring criteria: 4 paws on the floor was scored as 0; 2 forepaws on the cage was scored as 1; and 4 paws on the cage was scored as 2.

Data set [3] has as its target 5-HT2C receptor (Rattus norvegicus, UniProt P08909). Kind of data set: 5HT2C receptor binding assay ([3H]-mesulergine, rat brain striatum membrane). Conditions: for affinity for 5-HT2C receptor (in words): in vitro receptor binding assay; for inhibition at 10 µM: read-out: 5HT2C inhibition %.
In data set [4] the target is dopamine D2 receptor (Rattus norvegicus, UniProt P61169). Kind of data set: D2 receptor binding assay (3H-Spiperone, rat brain striatum membrane). The settings on record: for affinity for D2 receptor (in words): in vitro receptor binding assay; for inhibition at 10 µM: read-out: D2 inhibition %.
Sequence of dopamine D2 receptor (P61169 whole entry): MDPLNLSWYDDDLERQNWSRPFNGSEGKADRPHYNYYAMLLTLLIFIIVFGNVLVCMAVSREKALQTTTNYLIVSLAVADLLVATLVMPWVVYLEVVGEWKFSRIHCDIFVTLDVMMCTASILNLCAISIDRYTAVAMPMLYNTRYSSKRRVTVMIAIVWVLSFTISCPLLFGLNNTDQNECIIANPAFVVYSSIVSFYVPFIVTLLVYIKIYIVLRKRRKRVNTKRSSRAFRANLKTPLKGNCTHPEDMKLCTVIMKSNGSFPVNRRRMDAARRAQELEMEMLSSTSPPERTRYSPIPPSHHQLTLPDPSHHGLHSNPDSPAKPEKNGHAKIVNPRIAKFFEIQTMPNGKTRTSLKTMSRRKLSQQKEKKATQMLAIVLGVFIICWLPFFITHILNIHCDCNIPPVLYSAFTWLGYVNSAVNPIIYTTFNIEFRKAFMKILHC
Description: Rats were sacrificed by cervical dislocation on ice. Brain striatum was rapidly taken, and 2 brain striatums were combined into a centrifuge tube, to which 3 ml of buffer (0.05 M Tris-HCl buffer, containing NaCl 120 mM, KCl 5 mM, MgCl2 1 mM, CaCl2 1 mM) was added, homogenization was conducted for 3-4 s at level 4 for four times, and then 5 ml of buffer was then added. The weight of the homogenized tubes were adjusted using a balance, and centrifugation was conducted at 12000 r, 4° C. for 20 min. The supernatant was discarded, and 3 ml of buffer was added (0.05 M Tris-HCl buffer, containing NaCl 120 mM, KCl 5 mM, MgCl2 1 mM, CaCl2 1 mM). Vortex mixer was used for blending, and then 5 ml of buffer was added (0.05 M Tris-HCl buffer, containing NaCl 120 mM, KCl 5 mM, MgCl2 1 mM, CaCl2 1 mM). Centrifugation was conducted (repeated 3 times). After the centrifugations, the supernatant was discarded, and the pellets were stored at −80° C. for future use.
Beckman LS-6500 Multi-function Liquid Scintillation Counter was used.
(1) The prepared membrane was first applied with appropriate amount of homogenized liquid, and homogenizer was used for evenly dispersing. 15 tubes were mixed into a 100 ml container, and appropriate amount of homogenized liquid was added to give 50 ml of membrane suspension, which was reserved for future use.
(2) 100 μL of membrane preparation and 100 μL of buffer were added into each reaction tube.
(3) 100 μL of homogenized liquid was added into the total binding tube (TB), 100 μL of Butaclamol (final concentration 10^−5 M) was added into the non-specific binding tube (NB), and 100 μL of the test compound (final concentration 10^−5 M) was added into the specific binding tube (SB) for each compound.
(5) Each of the reaction tubes was incubated at 37° C. for 20 min. After the reaction was completed, the bound ligands were rapidly filtered under reduced pressure, and the ice-chilled assay buffer was used for adequate washing. The filter was taken out and put into a 3 ml scintillation vial, and 2 ml of toluene scintillation solution was added and blended.
(6) The scintillation vials were put into Liquid Scintillation Counter for counting. Inhibitory rate(1%)=(Total binding tube cpm−compound cpm)/(Total binding tube cpm−non-specific binding tube cpm)×100%
Each assay for the compounds was conducted in duplicate.
Data set [5] is described as follows: Catalepsy assay. Type of data set: in vivo. Conditions: both sexes, Kunming (KM), mouse, in vivo; mice, po. As to the method:
(§1) Healthy mice of Kunming breed (with half male and half female, (22±2)g) were provided by Qinglongshan Animal Cultivation Center, Nanjing.
(§2) Instruments: self-made bar-grabbing apparatus: stainless steel bar in mice box, which was 0.3 cm in diameter and […].
(§3) Corresponding solvent double-distilled water was administered intragastrically to the negative control group and the model group, corresponding positive drugs were administered intragastrically to the positive drug groups (a small amount of acetic acid was first added and then double-distilled water was added when dissolving), and corresponding dosages of compounds were administered intragastrically to the compound groups for each dosage, with the volume for intragastric administration as 0.1 ml/10 g. At 30 min, 60 min, 90 min after the intragastric administration, the two forepaws of the mice were gently placed on the bars (which were 20 cm in length, 0.3 cm in diameter, and 5.5 cm above the bench), and the hindpaws of the animals were placed on the bottom of the box. The durations for the mice to maintain the posture with the two forepaws on the bars were recorded, and 30 s of spasticity without moving was considered as the positive response. In the case the forepaws of the mice were not put down persistently, the observation was terminated at 60 s. The numbers of animals with positive response in each of the compound dosage groups were counted.

Data set [6] deals with mice of Kunming breed. Description: MK-801 induced high activity in mice. Type of data set: in vivo. Conditions: for ED50: Mus musculus, 1.5 h, po, MK-801 0.1 mg/kg ip, spontaneous activity in 90 min; for improvement of MK-801 induced high activity (in words): compared to the model group. As to the method:
Healthy mice of Kunming breed (with half male and half female, (20±2)g) were provided by Qinglongshan Animal Cultivation Center, Nanjing.
Subsequently, the spontaneous activities of the mice of each group in 90 min were measured.

The target in data set [7] is 5-HT2A receptor (Rattus norvegicus, UniProt P14842). Kind of data set: 5HT2A receptor binding assay ([3H]-Ketanserin, rat brain striatum membrane). Conditions: for IC50: cells marked ^a; for affinity for 5-HT2A receptor (in words): in vitro receptor binding assay; for inhibition at 10 µM: read-out: 5HT2A inhibition %.
Sequence of 5-HT2A receptor (P14842 whole entry): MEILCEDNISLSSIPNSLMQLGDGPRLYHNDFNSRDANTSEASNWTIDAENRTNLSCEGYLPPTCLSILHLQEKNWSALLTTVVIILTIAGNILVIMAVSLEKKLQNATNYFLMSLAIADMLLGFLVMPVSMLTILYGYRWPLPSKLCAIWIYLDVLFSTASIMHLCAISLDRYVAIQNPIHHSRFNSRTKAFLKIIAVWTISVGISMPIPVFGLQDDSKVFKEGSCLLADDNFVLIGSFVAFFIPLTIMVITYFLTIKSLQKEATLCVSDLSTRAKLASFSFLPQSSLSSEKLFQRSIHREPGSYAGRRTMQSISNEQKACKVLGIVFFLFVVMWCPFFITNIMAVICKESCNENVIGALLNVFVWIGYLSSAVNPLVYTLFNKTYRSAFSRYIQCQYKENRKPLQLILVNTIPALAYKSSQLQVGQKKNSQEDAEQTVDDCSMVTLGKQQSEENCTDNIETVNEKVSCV
Data set [8] concerns the target T1, 5-HT1A receptor (Rattus norvegicus, UniProt P19327).
T1 sequence (P19327 1-422): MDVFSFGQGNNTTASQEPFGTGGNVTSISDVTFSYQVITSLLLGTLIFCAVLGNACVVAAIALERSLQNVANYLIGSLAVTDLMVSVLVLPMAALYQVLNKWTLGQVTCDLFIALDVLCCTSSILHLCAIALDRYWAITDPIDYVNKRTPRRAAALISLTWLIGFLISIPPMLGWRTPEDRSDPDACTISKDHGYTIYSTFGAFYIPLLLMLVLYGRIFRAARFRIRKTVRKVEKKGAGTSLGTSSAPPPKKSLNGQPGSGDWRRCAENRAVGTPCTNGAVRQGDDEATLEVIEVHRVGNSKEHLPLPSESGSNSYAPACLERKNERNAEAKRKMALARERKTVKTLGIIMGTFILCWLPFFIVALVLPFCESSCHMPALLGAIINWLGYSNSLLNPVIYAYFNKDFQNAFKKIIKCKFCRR
Kind of data set: 5HT1A receptor binding assay (3H-8-OH-DPAT, rat brain striatum membrane). Conditions: for IC50: cells marked ^a; for IC50 / inhibition at 10 µM: 3H-8-OH-DPAT, rat brain striatum membrane; for affinity for 5-HT1A receptor (in words): in vitro receptor binding assay; for inhibition at 10 µM: test compound final concentration 10^−5 M. As to the method: Incubation at 37° C. was conducted for 10 min, the weight of the tubes were adjusted using a balance after incubation. […] Centrifugation was conducted and repeated 3 times.

Data set [9] in a line: in vivo. Conditions: both, mouse, po.
Description: as §4, §5
Data set [10] has as its target T2, D3 receptor (Homo sapiens, UniProt P35462).
T2 construct: expressed in transfected cells; host or cells: HEK-293
Description: D3 receptor assay ([3H]-Spiperone, HEK-293 cells). The format is binding. The settings on record: for inhibition at 10 µM: final concentration 10 μmol/L, [3H]-Spiperone, HEK-293 cells; for affinity for D3 receptor (in words): in vitro receptor binding assay. As to the method:
After the cells were centrifuged at 1000 rpm for 5 min, the supernatant was discarded, and the cell pellet was collected and stored in a −20° C. fridge for reservation. It was re-suspended with Tris-Cl (pH 7.4) in the assay.
Tris was divided into aliquots by Genetimes Technology Inc.
Competitive binding test for receptors: 20 μl of each of the test compounds and 20 μl of the radioactive ligand together with 160 μl of the receptor proteins were added into the reaction tubes, and the final concentrations of the test compound and the positive drug were all 10 μmol/L. After 50 min of incubation in 30° C. water bath, the tubes were immediately moved to ice bath to terminate the reactions. GF/C glass fiber filter papers were used for rapid sucking filtration on a Millipore cell sample collector, elution buffer (50 mM Tris-HCl, PH 7.4) was applied for 3 ml×3 times, and microwave was applied for 4-5 min for drying. The filter papers were moved into 0.5 ml centrifuge tubes, and 500 μl of lipid-soluble scintillation solution was added. The tubes were allowed to stand still for over 30 min in dark, and the intensities of radioactivity were measured by a counter.

Data set [11] relates to KM mice. Description: Catalepsy assay. The format is in vivo. On the procedure:
as §1, §2, §3

Where [12] appears, read: [3H]-Ketanserin, rat brain striatum membrane.

Sequence of 5-HT2C receptor (P08909 33-460): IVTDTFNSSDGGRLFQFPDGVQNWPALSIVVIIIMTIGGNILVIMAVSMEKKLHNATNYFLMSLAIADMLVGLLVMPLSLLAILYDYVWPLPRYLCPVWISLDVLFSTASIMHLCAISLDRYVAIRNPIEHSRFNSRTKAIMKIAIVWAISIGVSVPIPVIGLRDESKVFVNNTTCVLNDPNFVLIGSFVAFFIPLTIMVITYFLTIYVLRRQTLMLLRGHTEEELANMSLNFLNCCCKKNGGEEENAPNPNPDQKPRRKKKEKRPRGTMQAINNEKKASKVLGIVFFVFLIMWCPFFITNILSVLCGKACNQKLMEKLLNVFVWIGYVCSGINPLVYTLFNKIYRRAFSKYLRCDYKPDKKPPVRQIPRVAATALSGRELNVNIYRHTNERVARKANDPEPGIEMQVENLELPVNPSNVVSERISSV
T2 sequence (P35462 whole entry): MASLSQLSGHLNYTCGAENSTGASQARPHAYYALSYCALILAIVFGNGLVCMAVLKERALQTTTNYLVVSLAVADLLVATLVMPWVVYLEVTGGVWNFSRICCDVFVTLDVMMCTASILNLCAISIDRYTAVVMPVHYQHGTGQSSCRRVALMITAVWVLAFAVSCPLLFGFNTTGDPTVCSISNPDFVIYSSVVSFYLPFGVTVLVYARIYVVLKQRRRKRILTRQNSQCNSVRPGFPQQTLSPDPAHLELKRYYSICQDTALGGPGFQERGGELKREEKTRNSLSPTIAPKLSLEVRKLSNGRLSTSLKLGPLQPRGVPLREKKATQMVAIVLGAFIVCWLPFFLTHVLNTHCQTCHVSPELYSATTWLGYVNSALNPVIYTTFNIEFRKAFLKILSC

`O=C1CCc2ccc(OCCCCN3CCN(c4cccc(Cl)c4Cl)CC3)cc2N1` [aripiprazole]: the “LD50 (po, mg/kg)” value in data set [1] amounted to 93 mg/kg.

As usually defined, the ED50 is the dose that gives a 50% effect, or the effect in half of the subjects. Broadly, the inhibition is the relative decrease from the control value, in per cent. In general, IC50 refers to the concentration that gives 50% inhibition. A higher IC50 goes with lower potency. For orientation: LD50 means the dose expected to kill half of the subjects tested. High values mean a less toxic substance, low ones a more toxic substance. Turning to `Cc1cc(=O)oc2cc(OCCCCN3CCC(c4noc5cc(F)ccc45)CC3)ccc12` [Compound 6, 7-(4-(4-(3-(6-fluoro-benzisoxazole)-1-piperidyl)-n-butoxy))-4-methyl-2H-benzopyran-2-one], the 50% effective dose (ED50) in [2] came to 0.11 mg/kg; in data set [5], 0.68 mg/kg; in data set [6], 0.32 mg/kg. Moreover, the “affinity for 5-HT2C receptor (in words)” value in [3] is listed as “lower affinities”. Also, the inhibition at 10 µM in data set [3] turned out to be 91.4%; in data set [4], 101%; in data set [10], 100%. For the same molecule, the “affinity for D2 receptor (in words)” value in [4] was “relatively stronger affinities”. Also, the half-inhibitory concentration (IC50) amounted to 0.39 nM in data set [7] (setting [12]) and 3.52 nM in data set [8]. The “affinity for 5-HT2A receptor (in words)” value in data set [7] is given as “relatively stronger affinities”. The “affinity for 5-HT1A receptor (in words)” value in data set [8] is reported as “relatively stronger affinities”. Further, the LD50 in data set [9] was above 2000 mg/kg. Moreover, in data set [10], the “affinity for D3 receptor (in words)” value is listed as “relatively stronger affinities”.

As to `Cc1cc(=O)oc2c(C)c(OCCCCN3CCC(c4noc5cc(F)ccc45)CC3)ccc12` [Compound 23, 7-(4-(4-(3-(6-fluoro-benzisoxazole)-1-piperidyl)-n-butoxy))-4,8-dimethyl-2H-benzopyran-2-one], the “improvement of apomorphine induced clambering symptoms (in words)” value in [2] is “effectively improve”. Further, the ED50 in data set [2] amounted to 0.21 mg/kg; in data set [5], 46.1 mg/kg; in data set [6] it was 4.24 mg/kg. Besides, the results for the inhibition at 10 µM in data set [4], in data set [7] and in data set [8] were 6.9%, 78.6% and 78.5%, respectively. The “EPS at effective dosage (in words)” value in data set [11] is “did not cause EPS”. In addition, the “improvement of MK-801 induced high activity (in words)” value in [6] is recorded as “significantly improve”. The molecule further came in with a 50% lethal dose (LD50) in data set [9] above 2000 mg/kg.

As to `Cc1cc(=O)oc2cc(OCCCN3CCC(c4noc5cc(F)ccc45)CC3)ccc12` [Compound 7, 7-(3-(4-(3-(6-fluoro-benzisoxazole)-1-piperidyl)-n-propoxy))-4-methyl-2H-benzopyran-2-one], the 50% effective dose (ED50) in [2] was 0.15 mg/kg; in [5], 1.5 mg/kg; in data set [6], 0.27 mg/kg. The “affinity for 5-HT2C receptor (in words)” value in data set [3] is given as “lower affinities”. Moreover, the inhibition at 10 µM in data set [3] is 82%; in data set [4] it was 103%; in data set [10] it was 101%. Also, in [4], the “affinity for D2 receptor (in words)” value is listed as “relatively stronger affinities”. Also, the IC50 turned out to be 0.69 nM in [7] (setting [12]) and 5.95 nM in [8]. For the same molecule, in [7], the “affinity for 5-HT2A receptor (in words)” value is on record as “relatively stronger affinities”. Besides, the “affinity for 5-HT1A receptor (in words)” value in data set [8] is reported as “relatively stronger affinities”. The LD50 in data set [9] was in the range of 1000 to 2000 mg/kg. Moreover, the “affinity for D3 receptor (in words)” value in data set [10] is reported as “relatively stronger affinities”.

Consider `Cc1cc(=O)oc2c(Cl)c(OCCCCN3CCC(c4noc5cc(F)ccc45)CC3)ccc12` [Compound 19, 7-(4-(4-(3-(6-fluoro-benzisoxazole)-1-piperidyl)-n-butoxy))-4-methyl-8-chloro-2H-benzopyran-2-one], for which the “improvement of apomorphine induced clambering symptoms (in words)” value in data set [2] is given as “effectively improve”. For the same molecule, the figures for the 50% effective dose (ED50) in data set [2], in [5] and in [6] were 1.68 mg/kg, 70.8 mg/kg and 1.33 mg/kg, respectively. Further, the inhibition at 10 µM in [4] came out at 27.8%; in [7] (test compound final concentration 10^−5 M, [3H]-Ketanserin, rat brain striatum membrane), 119%; in data set [8], 104%. Further, in data set [11], the “EPS at effective dosage (in words)” value is on record as “did not cause EPS”. Besides, in [6], the “improvement of MK-801 induced high activity (in words)” value is “significantly improve”. The same molecule showed an LD50 in [9] (KM) above 2000 mg/kg.

For the molecule `O=c1ccc2ccc(OCCCCN3CCC(c4noc5cc(F)ccc45)CC3)cc2o1` [Compound 1, 7-(4-(4-(3-(6-fluoro-benzisoxazole)-1-piperidyl)-n-butoxy))-2H-benzopyran-2-one], the results for the median effective dose (ED50) in data set [2], in [5] and in [6] were 0.32 mg/kg, 1.41 mg/kg and 0.61 mg/kg, respectively. The “affinity for 5-HT2C receptor (in words)” value in data set [3] was “lower affinities”. Also, the results for the inhibition at 10 µM in [3], in data set [4] and in data set [10] were 88%, 128% and 97.6%, respectively. In addition, in data set [4], the “affinity for D2 receptor (in words)” value was “relatively stronger affinities”. In addition, the concentration for half-maximal inhibition (IC50) in [7] (setting [12]) was found to be 1.53 nM; in [8], 9.61 nM. In addition, the “affinity for 5-HT2A receptor (in words)” value in [7] is given as “relatively stronger affinities”. For the same molecule, the “affinity for 5-HT1A receptor (in words)” value in data set [8] is given as “relatively stronger affinities”. This molecule had a median lethal dose (LD50) in data set [9] above 2000 mg/kg. Also, the “affinity for D3 receptor (in words)” value in [10] is on record as “relatively stronger affinities”.
